Drawing on a melting point compilation (Tetko et al.; mined from patent text by program, amines drawn as free bases though some values may be those of a salt), this text covers melting point for 89 compounds.

Each structure is given as a SMILES string.

On to `O=C(Nc1ccc2cc(CN3CCCC3)cnc2c1)c1ccc(-c2ccc(Cl)cc2)nc1`, for which the melting point (commonly the temperature, or range, at which the solid turns liquid) is 223 to 225 °C.

For `COC(=O)C(C)(C)Nc1ccc(OCc2ccccc2)cc1`, the melting point is below 50 °C.

In turn, `NS(=O)(=O)Oc1ccccc1Cl` returned a melting point of 62.5 to 63.5 °C.

`CCON=C(CC)C1=C(O)CC(c2cc3c(cc2[N+](=O)[O-])OCO3)CC1=O` (centres undefined): the melting point was determined as 122 °C.

In turn, `CCc1c([N+](=O)[O-])cc(C2CCNCC2)cc1[N+](=O)[O-]` showed a melting point of 85 to 86 °C.

Consider `COc1cc(OC)c(-c2cc3ccccc3n2C)cc1C=CC(=O)c1ccc(S(=O)(=O)NO[Si](C)(C)C(C)(C)C)cc1`, for which the melting point lay in the range of 129 to 131 °C.

For the compound `N#Cc1cnc2cc3cc(O)ccc3cc2c1Nc1ccc(Cl)cc1Cl`, the melting point was 267 to 269 °C.

Compound `Nc1ccc(C23CC2C(=O)NC3=O)cc1` (centres undefined) registered a melting point of 183 to 185 °C.

In turn, `CCCS(=O)C1(S(=O)(=O)NC(C)(C)C)C=CC=CN1` (centres undefined) registered a melting point of 138 to 140 °C.

For `COC1=N/C(=C\c2c[nH]c3ncc(Cl)cc23)C(=O)N1c1ccccc1`, the melting point is 228 °C.

The compound `CCCCCc1ccc(-c2ccc(C3CCC(=O)O3)cc2)cc1` (single isomer, unassigned) gave a melting point of 98.8 °C.

As to `COc1ccc(CN(C)CCCOc2ccc(S(=O)(=O)c3c(C(C)C)n(C)c4ccccc34)cc2)cc1OC`, the melting point is 105 °C.

Consider `COc1cc(NP(=O)(OC)OC)ccc1NC(=O)OCc1ccccc1`, for which the melting point turned out to be 115 °C.

For `COc1cc(Nc2nccc(-c3ccc(NCCO)nc3)n2)cc(OC)c1OC`, the melting point was determined as 123 °C.

As to `CCOC(=O)C(=CNC(C)(C)C)C(=O)c1cc(F)c(Cl)nc1Cl`, the melting point worked out at 78 °C.

The compound `COc1ccccc1N1CCN(C(=O)N(C)c2cc(C)c(C)nc2OC)CC1` returned a melting point of 131 to 132 °C.

Compound `O=C(O)Cc1ccc2c(c1)sc1ccccc12` registered a melting point of 174 to 176 °C.

For `CCOc1nn(-c2ccc(C(F)(F)F)cn2)cc1CCCOc1ccc(Cl)cc1CC(=O)O`, the melting point lay within 130 to 131 °C.

The compound `Cc1ccc(COc2ccc(C=NCc3ccco3)cc2)cc1` displayed a melting point of 71 °C.

The compound `CCc1ncc(CO)c(NCc2ccc(-c3ccccc3-c3nnnn3C(c3ccccc3)(c3ccccc3)c3ccccc3)cc2)n1` returned a melting point of 118 to 120 °C.

`COc1cccc2c1C(=O)C(CC=O)C2` (racemic) yielded a melting point of 102 °C.

`O=C(O)CCc1c(C(=O)O)[nH]c2cc(-c3ccccc3)ccc12` had a melting point of 238 to 239 °C.

Consider `CN1CC2CN(C)CC(C1)C2OCc1ccccc1` (centres undefined), for which the melting point fell in the range of 70 to 75 °C.

Compound `C#CCN1C(=O)COc2ccc(-n3c(OC)nc(C(F)(F)F)cc3=O)cc21` had a melting point of 218 to 220 °C.

On to `CCOc1c(SC(F)(F)F)c(C(N)=O)nn1-c1c(Cl)cc(C(F)(F)F)cc1Cl`, for which the melting point stood at 161 °C.

`Cc1nn(C(CCCc2ccccc2)C(C)O)c2ncn(Cc3ccc(Cl)c(Cl)c3)c(=O)c12` (centres undefined) gave a melting point of 160 °C.

`C=CCN1CCC=C(c2ccc(C(C)(C)CCCCCC)cc2O)C1` returned a melting point of 109 to 110 °C.

`CCOCc1nc2c(N)nc3ccccc3c2n1CCOCCNC(=O)N1CCOCC1` showed a melting point of 178 to 181 °C.

In turn, `CC(C)(C)c1cc(C(O)C#Cc2ccc(C(=O)O)cc2)ccc1N1CCCC1` (centres undefined) yielded a melting point of 150 °C.

In the case of `O=[N+]([O-])c1cccc2c1C[C@H]1CSC(=S)N1C2`, the melting point is 203 °C.

Compound `COc1ccc2c(c1)C(C(=O)Nc1c(C(C)C)cccc1C(C)C)c1cccnc1CO2` (centres undefined) showed a melting point of 180 to 181 °C.

As to `CC(=O)NC(CO)CCc1ccc(Sc2cccc(OCc3ccccc3)c2)cc1Cl` (centres undefined), the melting point was in the range of 78 to 81 °C.

In turn, `CCCCCCN(CCCCCC)C(Nc1ccc(-c2ccccc2)cc1)=C1C(=O)COC1=O` came in with a melting point of 138 to 140 °C.

The compound `OC1CC(c2ccc(Oc3ccc(-c4ccc(Cl)cc4)cc3)cc2)Cc2ccccc21` (centres undefined) displayed a melting point of 156 °C.

The compound `O=S(=O)(CI)c1ncc(Cl)cn1` came in with a melting point of 152 °C.

For `COc1cc(C)ccc1S(=O)(=O)OCC(=O)c1ccccc1`, the melting point was 89 °C.

`Cc1c(Br)ccc(O)c1C(=O)O` displayed a melting point of 163 to 165 °C.

Consider `CC(=O)SC(C)CNC(=O)c1cc(Cl)cc(C)c1NC(=O)c1cc(C(F)(F)F)nn1-c1ncccc1Cl` (centres undefined), for which the melting point lay in the range of 137 to 139 °C.

In the case of `CCC(CC)(CC(=O)Nc1cccc(OCc2ccc3ccc(OCc4ccccc4)cc3n2)c1)C(=O)O`, the melting point is 89 to 95 °C.

As to `Cc1cc(C)nc(CCOc2ccc(NC(=O)N(C)C)cc2)c1`, the melting point was in the range of 113 to 114 °C.

`CCN(CC)C(=O)OCC1CN(C(=O)c2cc(OC)c(OC)c(OC)c2)CCN1C(=S)c1cc(OC)c(OC)c(OC)c1` (centres undefined) displayed a melting point of 175 °C.

For `CC1CCC(=O)N1c1cc(-c2ccnc(Nc3cccc(Cl)c3)n2)ccn1` (centres undefined), the melting point is 162 to 164 °C.

The compound `CN1C(=O)c2cscc2N(C)c2ccccc21` gave a melting point of 101 to 102 °C.

Turning to `Clc1ncc(OCc2ccsc2)cn1`, the melting point was in the range of 73 to 76 °C.

Compound `NNc1nncc(-c2ccc(F)cc2)n1` showed a melting point of 228 to 231 °C.

As for `CCOCC(=O)Nc1occ(C(C)(C)C)c1C#N`, the melting point turned out to be 98 °C.

For `CC1(C)C=CN(C(=O)Nc2ccccc2)C=C1`, the melting point was in the range of 128 to 130 °C.

With `CN(C)Cc1nc(CSCCNC(=C[N+](=O)[O-])NC2CC2)cs1`, the melting point was in the range of 128 to 132 °C.

On to `CCOC(=O)c1c(CN(CC)CC)nc2sc(C)c(C)c2c1-c1ccc(OC)cc1`, for which the melting point is 116 to 118 °C.

Compound `CC(=O)c1ccc2c(c1)CCCN2C(=O)c1ccc(-c2ccc(Cl)cc2)cc1` displayed a melting point of 149 to 151 °C.

The compound `COc1cc(O)c(C(=O)C=Cc2cccn2C)c(OC)c1` came in with a melting point of 140 °C.

As for `CN(c1cccc2cc(C3=NCC4(CCN(S(C)(=O)=O)CC4)S3)[nH]c12)S(=O)(=O)c1cccs1`, the melting point amounted to 251 °C.

For the compound `Nc1ccc(C(=O)N2CCCC(=O)c3sccc32)cc1`, the melting point is 216 to 218 °C.

With `COc1ccc(C(Sc2cc(Oc3cccc(C)c3)ccc2N)C(O)C(=O)O)cc1` (centres undefined), the melting point lay within 163 to 165 °C.

Regarding `COc1ccc2ncc(S(=O)(=O)N(C)C)c(O)c2c1`, the melting point was above 300 °C.

Turning to `C[C@@H](n1ccn(-c2ccc(-n3nccn3)cc2)c1=O)[C@](O)(Cn1cncn1)c1ccc(F)cc1F`, the melting point lay within 182 to 185 °C.

Compound `CC#CCOc1ccc(SC(C(=O)NO)c2ccc(Br)cc2)cc1` (centres undefined) gave a melting point of 153 °C.

Consider `Cc1ccccc1-c1nc(NCCN(C)C)ncc1N(C)C(=O)C(C)(C)c1cc(C(F)(F)F)cc(C(F)(F)F)c1`, for which the melting point fell in the range of 143 to 144 °C.

In turn, `OCCCCNC1CCCCC1` came in with a melting point of 48 to 50 °C.

With `CCCCC(=O)N(CCCOCc1ccccc1)Cc1ccc(-c2ccccc2-c2nnn[nH]2)cc1`, the melting point was 112 to 115 °C.

`COc1ccc(C2=NN(Cc3ccc(OCCCCBr)cc3)C(=O)[C@@H]3CC=CC[C@H]23)cc1OC`: the melting point fell in the range of 42 to 46 °C.

`CCCc1[nH]c(C)c(C(C)=O)c1C` yielded a melting point of 157 to 158 °C.

As to `CC(C)CCCOC1CCC2C3C(=O)C=C4CC(O)CCC4(C)C3CCC12C` (centres undefined), the melting point turned out to be 134 °C.

In turn, `Cc1c2ccnc(Cl)c2cc2c1[nH]c1ccncc12` registered a melting point above 263 °C.

`COc1ccc(Cc2nc3cccc(CCCO)c3o2)cc1OC`: the melting point lay within 95 to 97 °C.

As for `Cc1cccc(C(CCC(=O)O)Oc2cc(OCc3cccnc3)ccc2C#N)c1C` (racemic), the melting point was in the range of 187 to 189 °C.

In turn, `CNc1nnc2ccc(-c3cccc(N(C)C(C)=O)c3)nn12` showed a melting point of 213 to 215 °C.

As for `O=c1[nH]c(-c2c(F)cccc2F)nn1-c1ccccc1C(F)(F)F`, the melting point is 259 to 260 °C.

The compound `COc1ccccc1N1CCN(CC(O)CCN2C(=O)c3ccccc3C2=O)CC1` (centres undefined) showed a melting point of 192 to 194 °C.

Compound `c1ccc(-c2ccon2)cc1` registered a melting point of 75 °C.

`Cc1cc(CCCOc2ccc(-c3noc(C(F)(F)F)n3)cc2)on1` had a melting point of 68 to 69 °C.

`CC(C)(C)c1ccccc1COc1ccc(N)cn1` registered a melting point of 147 to 149 °C.

With `C(=C1c2ccccc2-c2ccccc21)c1nc(COc2ccc(CCCn3ccnc3)cc2)co1`, the melting point is 116 to 117 °C.

On to `Cc1cccc2c1N(N=C=O)C(=O)CN=C2`, for which the melting point lay within 206 to 212 °C.

`O=C1NCC(C(=O)O)S1` (centres undefined) came in with a melting point of 148 to 150 °C.

For the compound `COc1cccc(Cc2cc3cccc(-c4cccc(C(=O)Nc5ccc(F)nc5)c4)c3o2)c1`, the melting point was 196 to 199 °C.

Regarding `CCOC(=O)c1ccc(C=C(CCCc2ccc(C(=O)O)cc2)Cn2ccnc2)cc1`, the melting point fell in the range of 167 to 170 °C.

`Nc1cc(C=O)nc(Cc2ccc(F)cc2)c1F` returned a melting point of 130 to 131 °C.

Consider `CS(=O)(=O)c1ccc(-c2cc(COCCO)nn2CC2CCCCC2)cc1`, for which the melting point lay within 73 to 75 °C.

`CCOC(=O)C1=C(C)Nc2n[nH]cc2C1c1ccccc1OC` (centres undefined) registered a melting point of 196 to 200 °C.

Take `CCN1C(C(=O)Nc2ccccc2)=C(O)c2ccc3ccccc3c2S1(=O)=O`: the melting point was in the range of 245 to 247 °C.

`CC(C)C(NC(=O)OCc1ccccc1)(C(=O)OCc1ccccc1)C1CO1` (centres undefined) had a melting point of 74 to 76 °C.

On to `CC1(C)CNC(=Nc2ccccc2)S1`, for which the melting point was in the range of 153 to 155 °C.

With `OCc1cc2c3n(ccc-2n1)CC(Br)=N3`, the melting point lay in the range of 113 to 115 °C.

With `Nc1ccc(-c2noc(-c3cnn4c(C(F)F)cc(-c5ccc(C(F)(F)F)c(Cl)c5)nc34)n2)cn1`, the melting point is 252 °C.

In turn, `COc1ccnc(CSc2nc3c(C(F)(F)F)cccc3[nH]2)c1C` displayed a melting point of 175 °C.

Consider `COc1ccc(C(=O)NNC(=O)N(C)C)cc1`, for which the melting point lay within 218 to 220 °C.

Consider `COC(=O)c1ccc2oc3c(c(=O)c2c1)CCC3=Cc1cc(OC)c(OC)cc1OC`, for which the melting point fell in the range of 221 to 224 °C.

In turn, `CC1(C)CC(NC=O)CC(C)(C)N1` showed a melting point of 153 °C.
